What was measured:
Test in all cases: Test C preemergence
Type in all cases: in vivo
[1] = tested on: crabgrass, large (large crabgrass, Digitaria sanguinalis); conditions: for Plant response rating, Crabgrass, Large: scale 0 to 100, 0 no effect, 100 complete control
Method in brief: (§1)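 Preemergence: sow in loam-sand soil and treat. Postemergence: grow in peat-moss/vermiculite medium to 2–18 cm (1–4 leaves) and spray. Compound in non-phytotoxic solvent with surfactant; keep in greenhouse 13–15 d; score visually against controls, 0 (none) to 100 (full control).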

[2] = tested on: ryegrass, Italian (Italian ryegrass, Lolium multiflorum); conditions: for Plant response rating, Ryegrass, Italian: scale 0 to 100, 0 no effect, 100 complete control
Method in brief: as §1

[3] = tested on: johnsongrass (Sorghum halepense); conditions: for Plant response rating, Johnsongrass: scale 0 to 100, 0 no effect, 100 complete control
Method in brief: as §1

[4] = tested on: morningglory (Ipomoea coccinea); conditions: for Plant response rating, Morningglory: scale 0 to 100, 0 no effect, 100 complete control
Method in brief: as §1

[5] = tested on: ragweed (common ragweed, Ambrosia elatior); conditions: for Plant response rating, Ragweed: scale 0 to 100, 0 no effect, 100 complete control
Method in brief: as §1

[6] = tested on: velvetleaf (Abutilon theophrasti); conditions: for Plant response rating, Velvetleaf: scale 0 to 100, 0 no effect, 100 complete control
Method in brief: as §1

soybean (Glycine max) = conditions: for Plant response rating, Soybean: scale 0 to 100, 0 no effect, 100 complete control
Method in brief: as §1

[7] = tested on: wheat (winter wheat, Triticum aestivum); conditions: for Plant response rating, Wheat: scale 0 to 100, 0 no effect, 100 complete control
Method in brief: as §1

[8] = tested on: nutsedge, yellow (yellow nutsedge, Cyperus esculentus); conditions: for Plant response rating, Nutsedge, Yellow: scale 0 to 100, 0 no effect, 100 complete control
Method in brief: as §1

[9] = tested on: lambsquarters (Chenopodium album); conditions: for Plant response rating, Lambsquarters: scale 0 to 100, 0 no effect, 100 complete control
Method in brief: as §1

corn (Zea mays) = conditions: for Plant response rating, Corn: scale 0 to 100, 0 no effect, 100 complete control
Method in brief: as §1

[10] = tested on: barnyardgrass (Echinochloa crus-galli); conditions: for Plant response rating, Barnyardgrass: scale 0 to 100, 0 no effect, 100 complete control
Method in brief: as §1

[11] = tested on: Galium (catchweed bedstraw, Galium aparine); conditions: for Plant response rating, Galium: scale 0 to 100, 0 no effect, 100 complete control
Method in brief: as §1

[12] = tested on: foxtail, giant (giant foxtail, Setaria faberii); conditions: for Plant response rating, Foxtail, Giant: scale 0 to 100, 0 no effect, 100 complete control
Method in brief: as §1

[13] = tested on: oilseed rape (Brassica napus); conditions: for Plant response rating, Oilseed Rape: scale 0 to 100, 0 no effect, 100 complete control
Method in brief: as §1

[14] = tested on: waterhemp (common waterhemp, Amaranthus rudis); conditions: for Plant response rating, Waterhemp: scale 0 to 100, 0 no effect, 100 complete control
Method in brief: as §1

[15] = tested on: pigweed (Amaranthus retroflexus); conditions: for Plant response rating, Pigweed: scale 0 to 100, 0 no effect, 100 complete control
Method in brief: as §1

[16] = tested on: blackgrass (Alopecurus myosuroides); conditions: for Plant response rating, Blackgrass: scale 0 to 100, 0 no effect, 100 complete control
Method in brief: as §1

[17] = 31 g ai/ha, 0 is no effect, 100 is complete control

Cc1ccc(C2CN(C)C(=O)C2C(=O)Nc2ccccc2C(F)(F)F)cc1 (stereo not shown) [Compound 665]
Plant response rating (scale of 0 to 100), Crabgrass, Large [1, 17]: 98 | Plant response rating, Crabgrass, Large ([1]; 62 g ai/ha): 100 | Plant response rating, Crabgrass, Large ([1]; 125 g ai/ha): 100 | Plant response rating, Crabgrass, Large ([1]; 250 g ai/ha): 100 | Plant response rating (scale of 0 to 100), Ryegrass, Italian [2, 17]: 30 | Plant response rating, Ryegrass, Italian ([2]; 62 g ai/ha): 60 | Plant response rating, Ryegrass, Italian ([2]; 125 g ai/ha): 65 | Plant response rating, Ryegrass, Italian ([2]; 250 g ai/ha): 60 | Plant response rating (scale of 0 to 100), Johnsongrass [3, 17]: 10 | Plant response rating, Johnsongrass ([3]; 62 g ai/ha): 25 | Plant response rating, Johnsongrass ([3]; 125 g ai/ha): 25 | Plant response rating, Johnsongrass ([3]; 250 g ai/ha): 45 | Plant response rating (scale of 0 to 100), Morningglory [4, 17]: 0 | Plant response rating, Morningglory ([4]; 62 g ai/ha): 15 | Plant response rating, Morningglory ([4]; 125 g ai/ha): 20 | Plant response rating, Morningglory ([4]; 250 g ai/ha): 10 | Plant response rating (scale of 0 to 100), Ragweed [5, 17]: 40 | Plant response rating, Ragweed ([5]; 62 g ai/ha): 55 | Plant response rating, Ragweed ([5]; 125 g ai/ha): 70 | Plant response rating, Ragweed ([5]; 250 g ai/ha): 75 | Plant response rating (scale of 0 to 100), Velvetleaf [6, 17]: 20 | Plant response rating, Velvetleaf ([6]; 62 g ai/ha): 35 | Plant response rating, Velvetleaf ([6]; 125 g ai/ha): 60 | Plant response rating, Velvetleaf ([6]; 250 g ai/ha): 70 | Plant response rating (scale of 0 to 100), Soybean (soybean (Glycine max); [17]): 10 | Plant response rating, Soybean (soybean (Glycine max); 62 g ai/ha): 10 | Plant response rating, Soybean (soybean (Glycine max); 125 g ai/ha): 0 | Plant response rating, Soybean (soybean (Glycine max); 250 g ai/ha): 10 | Plant response rating (scale of 0 to 100), Wheat [7, 17]: 15 | Plant response rating, Wheat ([7]; 62 g ai/ha): 50 | Plant response rating, Wheat ([7]; 125 g ai/ha): 50 | Plant response rating, Wheat ([7]; 250 g ai/ha): 90 | Plant response rating (scale of 0 to 100), Nutsedge, Yellow [8, 17]: 0 | Plant response rating, Nutsedge, Yellow ([8]; 62 g ai/ha): 0 | Plant response rating, Nutsedge, Yellow ([8]; 125 g ai/ha): 0 | Plant response rating, Nutsedge, Yellow ([8]; 250 g ai/ha): 0 | Plant response rating (scale of 0 to 100), Lambsquarters [9, 17]: 10 | Plant response rating, Lambsquarters ([9]; 62 g ai/ha): 45 | Plant response rating, Lambsquarters ([9]; 125 g ai/ha): 70 | Plant response rating, Lambsquarters ([9]; 250 g ai/ha): 85 | Plant response rating (scale of 0 to 100), Corn (corn (Zea mays); [17]): 0 | Plant response rating, Corn (corn (Zea mays); 62 g ai/ha): 10 | Plant response rating, Corn (corn (Zea mays); 125 g ai/ha): 75 | Plant response rating, Corn (corn (Zea mays); 250 g ai/ha): 70 | Plant response rating (scale of 0 to 100), Barnyardgrass [10, 17]: 85 | Plant response rating, Barnyardgrass ([10]; 62 g ai/ha): 95 | Plant response rating, Barnyardgrass ([10]; 125 g ai/ha): 98 | Plant response rating, Barnyardgrass ([10]; 250 g ai/ha): 100 | Plant response rating (scale of 0 to 100), Galium [11, 17]: 90 | Plant response rating, Galium ([11]; 62 g ai/ha): 90 | Plant response rating, Galium ([11]; 125 g ai/ha): 90 | Plant response rating, Galium ([11]; 250 g ai/ha): 90 | Plant response rating (scale of 0 to 100), Foxtail, Giant [12, 17]: 90 | Plant response rating, Foxtail, Giant ([12]; 62 g ai/ha): 95 | Plant response rating, Foxtail, Giant ([12]; 125 g ai/ha): 98 | Plant response rating, Foxtail, Giant ([12]; 250 g ai/ha): 98 | Plant response rating (scale of 0 to 100), Oilseed Rape [13, 17]: 30 | Plant response rating, Oilseed Rape ([13]; 62 g ai/ha): 60 | Plant response rating, Oilseed Rape ([13]; 125 g ai/ha): 80 | Plant response rating, Oilseed Rape ([13]; 250 g ai/ha): 85 | Plant response rating (scale of 0 to 100), Waterhemp [14, 17]: 50 | Plant response rating, Waterhemp ([14]; 62 g ai/ha): 40 | Plant response rating, Waterhemp ([14]; 125 g ai/ha): 65 | Plant response rating, Waterhemp ([14]; 250 g ai/ha): 85 | Plant response rating (scale of 0 to 100), Pigweed [15, 17]: 0 | Plant response rating, Pigweed ([15]; 62 g ai/ha): 60 | Plant response rating, Pigweed ([15]; 125 g ai/ha): 50 | Plant response rating, Pigweed ([15]; 250 g ai/ha): 50 | Plant response rating (scale of 0 to 100), Blackgrass [16, 17]: 60 | Plant response rating, Blackgrass ([16]; 62 g ai/ha): 60 | Plant response rating, Blackgrass ([16]; 125 g ai/ha): 90 | Plant response rating, Blackgrass ([16]; 250 g ai/ha): 90

O=C1NCC(c2ccc(Br)cc2)C1C(=O)Nc1cccc(F)c1F (stereo not shown) [Compound 446]
Plant response rating, Crabgrass, Large ([1]; 31 g ai/ha): 100 | Plant response rating, Crabgrass, Large ([1]; 62 g ai/ha): 100 | Plant response rating, Crabgrass, Large ([1]; 125 g ai/ha): 100 | Plant response rating, Crabgrass, Large ([1]; 250 g ai/ha): 100 | Plant response rating, Ryegrass, Italian ([2]; 62 g ai/ha): 0 | Plant response rating, Ryegrass, Italian ([2]; 125 g ai/ha): 0 | Plant response rating, Ryegrass, Italian ([2]; 250 g ai/ha): 45 | Plant response rating, Johnsongrass ([3]; 31 g ai/ha): 20 | Plant response rating, Johnsongrass ([3]; 62 g ai/ha): 40 | Plant response rating, Johnsongrass ([3]; 125 g ai/ha): 50 | Plant response rating, Johnsongrass ([3]; 250 g ai/ha): 65 | Plant response rating, Morningglory ([4]; 31 g ai/ha): 0 | Plant response rating, Morningglory ([4]; 62 g ai/ha): 0 | Plant response rating, Morningglory ([4]; 125 g ai/ha): 0 | Plant response rating, Morningglory ([4]; 250 g ai/ha): 0 | Plant response rating, Ragweed ([5]; 31 g ai/ha): 25 | Plant response rating, Ragweed ([5]; 62 g ai/ha): 40 | Plant response rating, Ragweed ([5]; 125 g ai/ha): 75 | Plant response rating, Ragweed ([5]; 250 g ai/ha): 85 | Plant response rating, Velvetleaf ([6]; 62 g ai/ha): 0 | Plant response rating, Velvetleaf ([6]; 125 g ai/ha): 10 | Plant response rating, Velvetleaf ([6]; 250 g ai/ha): 30 | Plant response rating, Soybean (soybean (Glycine max); 62 g ai/ha): 20 | Plant response rating, Soybean (soybean (Glycine max); 125 g ai/ha): 10 | Plant response rating, Soybean (soybean (Glycine max); 250 g ai/ha): 25 | Plant response rating, Wheat ([7]; 62 g ai/ha): 0 | Plant response rating, Wheat ([7]; 125 g ai/ha): 0 | Plant response rating, Wheat ([7]; 250 g ai/ha): 30 | Plant response rating, Nutsedge, Yellow ([8]; 31 g ai/ha): 0 | Plant response rating, Nutsedge, Yellow ([8]; 62 g ai/ha): 0 | Plant response rating, Nutsedge, Yellow ([8]; 125 g ai/ha): 0 | Plant response rating, Nutsedge, Yellow ([8]; 250 g ai/ha): 0 | Plant response rating, Lambsquarters ([9]; 31 g ai/ha): 60 | Plant response rating, Lambsquarters ([9]; 62 g ai/ha): 50 | Plant response rating, Lambsquarters ([9]; 125 g ai/ha): 55 | Plant response rating, Lambsquarters ([9]; 250 g ai/ha): 95 | Plant response rating, Corn (corn (Zea mays); 31 g ai/ha): 0 | Plant response rating, Corn (corn (Zea mays); 62 g ai/ha): 0 | Plant response rating, Corn (corn (Zea mays); 125 g ai/ha): 0 | Plant response rating, Corn (corn (Zea mays); 250 g ai/ha): 10 | Plant response rating, Barnyardgrass ([10]; 31 g ai/ha): 90 | Plant response rating, Barnyardgrass ([10]; 62 g ai/ha): 90 | Plant response rating, Barnyardgrass ([10]; 125 g ai/ha): 90 | Plant response rating, Barnyardgrass ([10]; 250 g ai/ha): 95 | Plant response rating, Galium ([11]; 31 g ai/ha): 0 | Plant response rating, Galium ([11]; 62 g ai/ha): 90 | Plant response rating, Galium ([11]; 125 g ai/ha): 90 | Plant response rating, Galium ([11]; 250 g ai/ha): 95 | Plant response rating, Foxtail, Giant ([12]; 31 g ai/ha): 85 | Plant response rating, Foxtail, Giant ([12]; 62 g ai/ha): 90 | Plant response rating, Foxtail, Giant ([12]; 125 g ai/ha): 90 | Plant response rating, Foxtail, Giant ([12]; 250 g ai/ha): 95 | Plant response rating, Oilseed Rape ([13]; 31 g ai/ha): 0 | Plant response rating, Oilseed Rape ([13]; 62 g ai/ha): 85 | Plant response rating, Oilseed Rape ([13]; 125 g ai/ha): 90 | Plant response rating, Oilseed Rape ([13]; 250 g ai/ha): 95 | Plant response rating, Waterhemp ([14]; 62 g ai/ha): 100 | Plant response rating, Waterhemp ([14]; 125 g ai/ha): 80 | Plant response rating, Waterhemp ([14]; 250 g ai/ha): 98 | Plant response rating, Pigweed ([15]; 31 g ai/ha): 50 | Plant response rating, Pigweed ([15]; 62 g ai/ha): 75 | Plant response rating, Pigweed ([15]; 125 g ai/ha): 80 | Plant response rating, Pigweed ([15]; 250 g ai/ha): 85 | Plant response rating, Blackgrass ([16]; 31 g ai/ha): 0 | Plant response rating, Blackgrass ([16]; 62 g ai/ha): 0 | Plant response rating, Blackgrass ([16]; 125 g ai/ha): 50 | Plant response rating, Blackgrass ([16]; 250 g ai/ha): 55

Reference: patent US12077503B2, “Substituted cyclic amides and their use as herbicides” (FMC CORPORATION, priority 2015, dated 2024)
